From ChEMBL document CHEMBL1154532, “Antibacterial alkoxybenzamide inhibitors of the essential bacterial cell division protein FtsZ” (2009)
Converted amounts (≈) assume the structure as drawn.

Columns and labels:
[1] = target: T1, Cell division protein FtsZ (Bacillus subtilis (strain 168)) (UniProt P17865); experiment: Inhibition of FtsZ-mediated cell division in Bacillus subtilis 168 assessed as drug concentration required to produce filamentation
T1 sequence (whole entry): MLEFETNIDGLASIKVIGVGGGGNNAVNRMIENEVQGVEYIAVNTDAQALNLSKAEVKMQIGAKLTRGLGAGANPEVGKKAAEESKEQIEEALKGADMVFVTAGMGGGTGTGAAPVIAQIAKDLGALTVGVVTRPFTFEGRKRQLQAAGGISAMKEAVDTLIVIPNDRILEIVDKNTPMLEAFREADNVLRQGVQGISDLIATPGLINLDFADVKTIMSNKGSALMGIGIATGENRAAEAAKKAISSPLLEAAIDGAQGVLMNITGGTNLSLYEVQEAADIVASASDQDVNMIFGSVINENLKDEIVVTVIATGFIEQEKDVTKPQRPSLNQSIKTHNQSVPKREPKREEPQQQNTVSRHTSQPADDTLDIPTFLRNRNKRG

[2] = system: Bacillus subtilis; experiment: Antibacterial activity against Bacillus subtilis 168; format: functional
[3] = system: Staphylococcus aureus; experiment: Antibacterial activity against Staphylococcus aureus ATCC 29213; format: functional
[4] = target: T2, Cell division protein FtsZ (Staphylococcus aureus) (UniProt P0A031); experiment: Inhibition of FtsZ-mediated cell division in Staphylococcus aureus ATCC 29213 assessed as drug concentration required to produce ballooning
T2 sequence (whole entry): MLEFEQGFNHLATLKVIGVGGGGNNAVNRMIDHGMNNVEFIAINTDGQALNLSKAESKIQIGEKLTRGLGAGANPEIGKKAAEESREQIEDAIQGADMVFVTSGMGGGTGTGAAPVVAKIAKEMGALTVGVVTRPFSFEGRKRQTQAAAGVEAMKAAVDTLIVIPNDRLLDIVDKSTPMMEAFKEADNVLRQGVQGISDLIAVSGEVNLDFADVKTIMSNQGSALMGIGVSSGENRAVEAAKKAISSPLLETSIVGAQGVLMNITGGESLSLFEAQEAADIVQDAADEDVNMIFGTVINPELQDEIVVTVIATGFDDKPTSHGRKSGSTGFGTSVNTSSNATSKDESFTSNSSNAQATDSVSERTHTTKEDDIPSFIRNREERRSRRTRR

[5] = system: Staphylococcus aureus; experiment: Antibacterial activity against Staphylococcus aureus ATCC 601055 with FtsZ P300R point mutation; format: functional
[6] = system: Staphylococcus aureus; experiment: Antibacterial activity against Staphylococcus aureus ATCC 601055 with FtsZ […] point mutation; format: functional
[7] = system: Staphylococcus aureus; experiment: Antibacterial activity against methicillin-susceptible Staphylococcus aureus ATCC 601055; format: functional
[8] = system: Staphylococcus aureus; experiment: Antibacterial activity against methicillin-susceptible Staphylococcus aureus ATCC 25923; format: functional
[9] = system: Staphylococcus aureus; experiment: Antibacterial activity against methicillin-susceptible Staphylococcus aureus ATCC 19636; format: functional
[10] = system: Staphylococcus aureus; experiment: Antibacterial activity against methicillin-resistant Staphylococcus aureus ATCC 43300; format: functional
[11] = system: Staphylococcus aureus; experiment: Antibacterial activity against methicillin-resistant Staphylococcus aureus ATCC 700698; format: functional
[12] = system: Staphylococcus aureus; experiment: Antibacterial activity against methicillin-resistant Staphylococcus aureus ATCC 607004; format: functional
[13] = system: Staphylococcus aureus; experiment: Antibacterial activity against […] Staphylococcus aureus ATCC 29213; format: functional
[14] = system: Staphylococcus epidermidis; experiment: Antibacterial activity against Staphylococcus epidermidis ATCC 12228; format: functional

SMILES	Activity [1]	MIC [2]	MIC [3]	further results
CCCOc1cccc(C(N)=O)c1	375 µg/mL	500 µg/mL (≈ 2790 µM)	256 µg/mL (≈ 1430 µM)	–
COc1ccc(C(N)=O)cc1	–	> 4000 µg/mL	–	–
COc1cccc(C(=O)O)c1	–	> 4000 µg/mL	–	–
CCCCCCCCCOc1cccc(C(N)=O)c1F	0.125 µg/mL	0.125 µg/mL (≈ 0.444 µM)	0.5 µg/mL (≈ 1.78 µM)	Activity [4]: 0.5 µg/mL
COc1cccc(C(N)=O)c1F	128 µg/mL	512 µg/mL (≈ 3030 µM)	512 µg/mL (≈ 3030 µM)	–
CC(=O)O[C@H]1C[C@@]2(C)[C@@H](C[C@@H](O)[C@H]3[C@@]4(C)CC[C@@H](O)[C@@H](C)[C@@H]4CC[C@@]32C)/C1=C(\CCC=C(C)C)C(=O)O [FUSIDIC ACID]	–	–	0.06 µg/mL (≈ 0.116 µM)	–
CCCCCCCCCCCCOc1cccc(C(N)=O)c1	> 128 µg/mL	–	> 256 µg/mL	–
CCCCCCCOc1cccc(C(N)=O)c1	1.5 µg/mL	4 µg/mL (≈ 17 µM)	8 µg/mL (≈ 34 µM)	–
COc1cc(OC)cc(C(N)=O)c1	–	> 4000 µg/mL	–	–
CCCCOc1cccc(C(N)=O)c1	24 µg/mL	128 µg/mL (≈ 662 µM)	128 µg/mL (≈ 662 µM)	–
O=C(N[C@H](CO)[C@H](O)c1ccc([N+](=O)[O-])cc1)C(Cl)Cl [CHLORAMPHENICOL]	–	–	4 µg/mL (≈ 12.4 µM)	–
COc1ccc(Cl)c(C(N)=O)c1F	256 µg/mL	1020 µg/mL (≈ 5030 µM)	–	–
CCCCCCCCCOc1ccc(F)c(C(N)=O)c1Cl	0.5 µg/mL	0.5 µg/mL (≈ 1.58 µM)	2 µg/mL (≈ 6.33 µM)	Activity [4]: 1 µg/mL
CSc1cccc(C(N)=O)c1	–	> 4000 µg/mL	–	–
Cc1cccc(C(N)=O)c1	–	> 2000 µg/mL	–	–
CCCCCOc1cccc(C(N)=O)c1	24 µg/mL	32 µg/mL (≈ 154 µM)	32 µg/mL (≈ 154 µM)	–
COc1cc(C(N)=O)ccc1[N+](=O)[O-]	–	> 4000 µg/mL	–	–
O=C(O)c1cn(C2CC2)c2cc(N3CCNCC3)c(F)cc2c1=O [CIPROFLOXACIN]	–	–	0.5 µg/mL (≈ 1.51 µM)	–
COc1ccc(F)c(C(N)=O)c1F	256 µg/mL	512 µg/mL (≈ 2740 µM)	512 µg/mL (≈ 2740 µM)	–
CNC(=O)c1cccc(OC)c1	–	> 4000 µg/mL	–	–
CCCCCCCCCOc1ccc(F)c(C(N)=O)c1F	0.125 µg/mL	0.125 µg/mL (≈ 0.418 µM)	0.5 µg/mL (≈ 1.67 µM)	Activity [4]: 0.25 µg/mL
COc1ccc(F)c(C(N)=O)c1	–	800 µg/mL (≈ 4730 µM)	–	–
CCCCCCCCCOc1cccc(C(N)=O)c1	0.18 µg/mL	0.5 µg/mL (≈ 1.9 µM)	2 µg/mL (≈ 7.59 µM)	MIC [5]: > 128 µg/mL; MIC [6]: > 128 µg/mL; MIC [7]: 2 µg/mL (≈ 7.59 µM)
COc1cccc(C(N)=O)c1C	–	> 4000 µg/mL	–	–

SMILES	Activity [1]	MIC [2]	MIC [3]	further results
CCCCCCOc1cccc(C(N)=O)c1	8 µg/mL	16 µg/mL (≈ 72.3 µM)	16 µg/mL (≈ 72.3 µM)	MIC [8]: 16 µg/mL (≈ 72.3 µM); MIC [5]: > 128 µg/mL; MIC [9]: 16 µg/mL (≈ 72.3 µM); MIC [6]: > 128 µg/mL; MIC [10]: 16 µg/mL (≈ 72.3 µM); MIC [11]: 32 µg/mL (≈ 145 µM); MIC [12]: 32 µg/mL (≈ 145 µM); MIC [7]: 32 µg/mL (≈ 145 µM); MIC [13]: 16 µg/mL (≈ 72.3 µM); MIC [14]: 32 µg/mL (≈ 145 µM)
COc1cccc(C(N)=O)c1[N+](=O)[O-]	–	> 4000 µg/mL	–	–
COc1cccc(CC(N)=O)c1	–	> 4000 µg/mL	–	–
COc1cccc(C(N)=S)c1	–	2000 µg/mL (≈ 12000 µM)	–	–
CCCCCCCCOc1cccc(C(N)=O)c1	0.37 µg/mL	1 µg/mL (≈ 4.01 µM)	4 µg/mL (≈ 16 µM)	–
COc1ccc(C(N)=O)cc1OC	–	> 4000 µg/mL	–	–
COc1cccc(C(=O)NO)c1	–	4000 µg/mL (≈ 23900 µM)	–	–
COc1cccc(C(N)=O)c1	500 µg/mL	4000 µg/mL (≈ 26500 µM)	2050 µg/mL (≈ 13500 µM)	MIC [8]: 4100 µg/mL (≈ 27100 µM); MIC [5]: > 8000 µg/mL; MIC [9]: 2050 µg/mL (≈ 13500 µM); MIC [6]: > 8000 µg/mL; MIC [10]: 4100 µg/mL (≈ 27100 µM); MIC [11]: 4100 µg/mL (≈ 27100 µM); MIC [12]: 4100 µg/mL (≈ 27100 µM); MIC [7]: 4000 µg/mL (≈ 26500 µM); MIC [13]: 2050 µg/mL (≈ 13500 µM); MIC [14]: 4100 µg/mL (≈ 27100 µM)
CCCCCCCCCCOc1cccc(C(N)=O)c1	0.5 µg/mL	1 µg/mL (≈ 3.6 µM)	64 µg/mL (≈ 231 µM)	–
COc1ccc([N+](=O)[O-])c(C(N)=O)c1	–	> 4000 µg/mL	–	–
COc1cccc(C(N)=O)c1OC	–	> 4000 µg/mL	–	–
C/C(=C\C(=O)OCCCCCCCCC(=O)O)C[C@@H]1OC[C@H](C[C@@H]2O[C@H]2[C@@H](C)[C@H](C)O)[C@@H](O)[C@H]1O [MUPIROCIN]	–	–	0.12 µg/mL (≈ 0.24 µM)	–
CNc1cccc(C(N)=O)c1	–	> 4000 µg/mL	–	–
NC(=O)c1cccc(OC(F)(F)F)c1	–	> 4000 µg/mL	–	–
CCOc1cccc(C(N)=O)c1	500 µg/mL	2000 µg/mL (≈ 12100 µM)	1020 µg/mL (≈ 6200 µM)	–
COc1ccc(OC)c(C(N)=O)c1	–	> 4000 µg/mL	–	–
NC(=O)c1cccc(O)c1	3000 µg/mL	> 4000 µg/mL	–	–
CCCCCCCCCOc1ccc(Cl)c(C(N)=O)c1F	0.25 µg/mL	0.5 µg/mL (≈ 1.58 µM)	1 µg/mL (≈ 3.17 µM)	Activity [4]: 0.5 µg/mL
COc1ccc(F)c(C(N)=O)c1Cl	2050 µg/mL	> 4000 µg/mL	–	–
CCCCCCCCCOc1ccc(F)c(C(N)=O)c1	1 µg/mL	1 µg/mL (≈ 3.55 µM)	8 µg/mL (≈ 28.4 µM)	Activity [4]: 2 µg/mL
COc1cccc(CN)c1	–	250 µg/mL (≈ 1820 µM)	–	–
CCCCCCCCCCCOc1cccc(C(N)=O)c1	1 µg/mL	4 µg/mL (≈ 13.7 µM)	> 256 µg/mL	–
COc1cc(C(N)=O)ccc1F	–	> 4000 µg/mL	–	–
